Results reported in patent publication US12595267B2, “Preparation method for amide compound and application thereof in field of medicine” (Shanghai Synergy Pharmaceutical Sciences Co., Ltd., priority 2019, dated 2026).
Where two headings read alike, the source gives them in different places.

Assays:
WSU-DLCL2 cells = experiment: Calcein AM proliferation assay, WSU-DLCL2 cells; format: cell-based, human; settings: Homo sapiens, read-out: WSU-DLCL2 proliferation IC50
Description: By observing under a microscope, it was confirmed that the cells are in good condition. The cells were transferred to a 15 mL centrifuge tube, which was centrifuged at 1000 rpm for 5 minutes.
Gradient dilutions of the compounds in DMSO were performed, and a compound plate with a final concentration of 500-fold was prepared. 1.2 μL of 500× compound was pipetted, transferred to 200 μL medium, and pipetted to mix well to obtain a 3× compound intermediate plate. 50 μL 3× compound is pipetted and added to the cell plate according to the set arrangement.
The cells of the above concentration were inoculated in 96-well plates, 100 μL/well (the number of cells in each well is 10,000). The cell plate was placed in a carbon dioxide incubator for 4 days. The cell plate was taken out. After mixed uniformly, a certain volume of cell suspension was drawn, and stained with Calcein AM. The number of cells in each well was counted with Acumen. According to the number of detected cells, 10,000 cells were re-inoculated in 96-well plates. As above, the compound was added. After placed in a carbon dioxide incubator for 3 days (day 7). The cell plate was taken out again. After mixed uniformly, a certain volume of cell suspension was drawn, stained with Calcein AM. The number of cells in each well was counted with Acumen. The cells were cultured for another 4 days (day 11), and the cell plate was taken out for the third time. After mixed uniformly, a certain volume of cell suspension was drawn, and stained with Calcein AM. The number of cells in each well was counted with Acumen. According to the number of detected cells, 10,000 cells were re-inoculated in 96-well plates. As above, the compound was added. […] After Calcein AM staining, the number of the cells was counted to obtain the final count result. The data of day 14 was processed to obtain the corresponding half-inhibitory concentration (IC50).
Using GraphPad Prism 5 software, a non-linear regression model was used to draw the S-type dose-survival rate curve and to calculate the IC50 value.

Pfeiffer cells = experiment: Calcein AM proliferation assay, Pfeiffer cells; format: cell-based, human; settings: Homo sapiens, Pfeiffer, read-out: Pfeiffer proliferation IC50
Karpas 422 cells = experiment: Calcein AM proliferation assay, Karpas 422 cells; format: cell-based, human; settings: Homo sapiens, read-out: Karpas422 proliferation IC50
[1] = Pharmacokinetics experiment in rats; format: in vivo; settings: rat, plasma, male SD rats; for bioavailability: oral 20 mg/kg vs intravenous 4 mg/kg, read-out: Bioavailability (F %); for AUC: read-out: Area under the curve (AUC); for half-life: read-out: Half life (T1/2) (converted); for Cmax: read-out: Blood drug level (Cmax)
Description: Male SD rats weighing 200-300 g and 8 weeks old were used as experimental animals. […] The pharmacokinetic behavior of the compound of the present invention in rats was studied, and the pharmacokinetic characteristics thereof were evaluated.
A certain amount of the compound was weighed, dissolved in 0.10% tween for vortex and ultrasound, and then 0.5% sodium carboxymethyl cellulose (CMC-Na) solution was added to prepare a uniform solution.
The above-mentioned compounds were applied intravenously and orally to rats at a dose of 4 mg/kg and a dose of 20 mg/kg, respectively. At 0.083 h, 0.25 h, 0.5 h, 1.0 h, 2.0 h, 4.0 h, 6.0 h, 8.0 h, 12.0 h, and 24.0 h after application, 0.2 mL of blood was collected from the orbit, and placed in an anticoagulant tube, which was centrifuged at 6000 rpm for 10 minutes at 4° C. The plasma was separated and stored at −80° C.

wild-type EZH2 = wild-type EZH2 (Homo sapiens, UniProt Q15910); experiment: Radiometric assay of activity on wild-type PRC2 EZH2
Description: 10 microliters (μL) of the compound of the test example and wild-type EZH2 were added to each well. After being incubated at room temperature for 15 minutes, peptides and [3H]-labeled methyl donor S-adenosylmethionine (SAM) were added. After reacting at room temperature for 1 hour (h), cold SAM was added to terminate the reaction. 25 μl reaction solution was transferred to the scintillation plate. After incubating for 1 hour (h) at room temperature, the plate was washed three times with deionized water and 0.1% Tween 20. The value was read with a PerkinElmer liquid scintillation/luminescence counter, and the half inhibitory concentration (IC50) of the compound was calculated with the Prism 5 software (GraphPad Prism 5).

Mutant EZH2 (Y641F) = molecular target: T1, Mutant EZH2 (Y641F) (Homo sapiens, UniProt Q15910, Y641F); experiment: AlphaLISA assay on mutant PRC2 complex, EZH2 Y641F; format: biochemical
T1 construct: purchased BPS 51004
Description: Detection Method: AlphaLISA
(§1) Finally, 15 μl detection solution mixture was added under low light, and incubated at room temperature for 60 minutes, and read the value.

Mutant EZH2 (Y641N) = molecular target: T2, Mutant EZH2 (Y641N) (Homo sapiens, UniProt Q15910, Y641N); experiment: AlphaLISA assay on mutant PRC2 complex, EZH2 Y641N; format: biochemical
T2 construct: purchased BPS 51004
Description: Detection Method: AlphaLISA
as §1

Mutant EZH2 (A677G) = molecular target: T3, Mutant EZH2 (A677G) (Homo sapiens, UniProt Q15910, A677G); experiment: AlphaLISA assay on mutant PRC2 complex, EZH2 A677G; format: biochemical
T3 construct: purchased BPS 51004
Description: Detection Method: AlphaLISA
as §1

[2] = WSUDLCL2, day 14 data, Calcein AM staining
[3] = KARPAS-422, day 14 data, Calcein AM staining
[4] = day 14 data, Calcein AM staining

Chain of wild-type EZH2 (Q15910 whole entry): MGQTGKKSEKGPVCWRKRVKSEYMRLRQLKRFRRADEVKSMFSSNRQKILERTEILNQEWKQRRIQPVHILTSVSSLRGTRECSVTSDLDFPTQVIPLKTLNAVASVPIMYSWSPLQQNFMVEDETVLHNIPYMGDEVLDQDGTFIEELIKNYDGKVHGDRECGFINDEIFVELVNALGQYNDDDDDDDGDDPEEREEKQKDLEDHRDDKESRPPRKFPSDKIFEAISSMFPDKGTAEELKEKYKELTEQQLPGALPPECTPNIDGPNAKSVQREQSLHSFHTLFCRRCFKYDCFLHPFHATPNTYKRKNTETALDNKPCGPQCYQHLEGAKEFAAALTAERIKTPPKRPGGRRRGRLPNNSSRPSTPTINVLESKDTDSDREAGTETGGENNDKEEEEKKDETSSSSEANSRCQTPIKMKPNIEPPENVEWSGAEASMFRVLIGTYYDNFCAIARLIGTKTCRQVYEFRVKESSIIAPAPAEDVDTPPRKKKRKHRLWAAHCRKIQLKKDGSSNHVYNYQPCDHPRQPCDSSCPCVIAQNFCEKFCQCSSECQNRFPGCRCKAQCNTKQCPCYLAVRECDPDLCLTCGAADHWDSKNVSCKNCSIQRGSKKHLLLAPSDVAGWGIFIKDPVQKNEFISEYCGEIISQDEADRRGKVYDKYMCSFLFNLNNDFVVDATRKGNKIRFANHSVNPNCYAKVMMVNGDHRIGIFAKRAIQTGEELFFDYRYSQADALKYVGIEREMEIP
Chain of wild-type EZH2 (O75530 whole entry partner): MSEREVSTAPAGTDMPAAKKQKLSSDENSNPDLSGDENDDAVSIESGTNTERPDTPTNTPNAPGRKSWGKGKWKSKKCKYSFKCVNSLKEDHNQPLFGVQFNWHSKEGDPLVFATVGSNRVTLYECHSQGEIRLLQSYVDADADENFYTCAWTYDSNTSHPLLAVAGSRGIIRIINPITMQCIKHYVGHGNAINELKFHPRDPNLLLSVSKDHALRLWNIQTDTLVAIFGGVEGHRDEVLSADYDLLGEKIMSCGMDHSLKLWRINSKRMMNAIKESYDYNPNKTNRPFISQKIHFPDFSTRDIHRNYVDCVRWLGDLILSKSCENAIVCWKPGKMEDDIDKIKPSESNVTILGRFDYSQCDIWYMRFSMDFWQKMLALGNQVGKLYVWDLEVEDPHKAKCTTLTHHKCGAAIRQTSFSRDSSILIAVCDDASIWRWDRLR
Chain of wild-type EZH2 (Q15022 whole entry partner): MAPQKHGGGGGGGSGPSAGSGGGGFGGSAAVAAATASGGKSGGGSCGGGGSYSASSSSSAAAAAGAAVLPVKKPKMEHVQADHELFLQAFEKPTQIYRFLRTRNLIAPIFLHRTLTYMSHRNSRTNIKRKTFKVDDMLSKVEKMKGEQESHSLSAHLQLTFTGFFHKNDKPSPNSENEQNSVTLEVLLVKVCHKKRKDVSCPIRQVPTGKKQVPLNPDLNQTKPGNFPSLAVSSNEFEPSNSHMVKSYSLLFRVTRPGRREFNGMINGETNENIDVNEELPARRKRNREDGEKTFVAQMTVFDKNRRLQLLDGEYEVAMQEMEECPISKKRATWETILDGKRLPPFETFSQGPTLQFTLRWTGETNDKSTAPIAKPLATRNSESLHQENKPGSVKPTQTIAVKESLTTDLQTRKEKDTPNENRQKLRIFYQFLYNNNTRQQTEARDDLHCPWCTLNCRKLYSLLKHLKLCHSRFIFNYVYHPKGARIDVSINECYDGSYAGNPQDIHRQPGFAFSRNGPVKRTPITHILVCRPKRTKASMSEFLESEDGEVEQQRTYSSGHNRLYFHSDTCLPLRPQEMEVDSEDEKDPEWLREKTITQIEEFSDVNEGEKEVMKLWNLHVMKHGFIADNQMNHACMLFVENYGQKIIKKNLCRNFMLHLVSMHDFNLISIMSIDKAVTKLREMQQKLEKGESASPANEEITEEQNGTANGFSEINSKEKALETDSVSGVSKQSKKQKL
Chain of wild-type EZH2 (Q09028 whole entry partner): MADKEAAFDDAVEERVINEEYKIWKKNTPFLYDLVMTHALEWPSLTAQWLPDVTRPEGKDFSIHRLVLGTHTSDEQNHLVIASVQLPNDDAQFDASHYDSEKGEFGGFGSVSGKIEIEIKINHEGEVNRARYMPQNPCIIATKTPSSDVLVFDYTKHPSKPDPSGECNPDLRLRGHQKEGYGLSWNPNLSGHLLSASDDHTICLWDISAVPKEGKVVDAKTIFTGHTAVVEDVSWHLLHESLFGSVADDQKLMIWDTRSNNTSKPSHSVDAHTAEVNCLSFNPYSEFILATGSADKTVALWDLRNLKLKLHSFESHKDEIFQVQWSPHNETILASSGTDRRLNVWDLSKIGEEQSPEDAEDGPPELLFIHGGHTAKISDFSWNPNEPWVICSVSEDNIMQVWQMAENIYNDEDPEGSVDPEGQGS
T1 sequence (Q15910 whole entry Y641F): as the sequence (Q15910 whole entry) above, with Y641F counted along it
T1 sequence (O75530 whole entry partner): as the sequence (O75530 whole entry partner) above
T1 sequence (Q15022 whole entry partner): as the sequence (Q15022 whole entry partner) above
T1 sequence (Q09028 whole entry partner): as the sequence (Q09028 whole entry partner) above
T1 sequence (Q6ZN18 whole entry partner): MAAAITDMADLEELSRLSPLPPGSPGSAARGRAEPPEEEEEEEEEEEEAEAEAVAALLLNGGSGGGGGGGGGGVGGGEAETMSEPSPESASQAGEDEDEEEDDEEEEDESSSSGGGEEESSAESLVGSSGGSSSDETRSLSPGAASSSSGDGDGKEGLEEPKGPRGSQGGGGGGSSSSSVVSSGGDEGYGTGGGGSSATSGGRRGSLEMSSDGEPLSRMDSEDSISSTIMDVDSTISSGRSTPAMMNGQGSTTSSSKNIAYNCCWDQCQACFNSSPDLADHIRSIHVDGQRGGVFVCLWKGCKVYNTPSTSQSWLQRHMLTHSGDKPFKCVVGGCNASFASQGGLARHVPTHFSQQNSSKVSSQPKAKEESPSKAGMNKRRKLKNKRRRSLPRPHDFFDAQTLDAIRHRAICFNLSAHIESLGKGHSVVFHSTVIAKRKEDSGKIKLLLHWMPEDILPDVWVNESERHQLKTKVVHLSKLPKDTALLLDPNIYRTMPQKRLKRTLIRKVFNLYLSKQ
T2 sequence (Q15910 whole entry Y641N): as the sequence (Q15910 whole entry) above, with Y641N counted along it
T2 sequence (O75530 whole entry partner): as the sequence (O75530 whole entry partner) above
T2 sequence (Q15022 whole entry partner): as the sequence (Q15022 whole entry partner) above
T2 sequence (Q09028 whole entry partner): as the sequence (Q09028 whole entry partner) above
T2 sequence (Q6ZN18 whole entry partner): as the sequence (Q6ZN18 whole entry partner) above
T3 sequence (Q15910 whole entry A677G): as the sequence (Q15910 whole entry) above, with A677G counted along it
T3 sequence (O75530 whole entry partner): as the sequence (O75530 whole entry partner) above
T3 sequence (Q15022 whole entry partner): as the sequence (Q15022 whole entry partner) above
T3 sequence (Q09028 whole entry partner): as the sequence (Q09028 whole entry partner) above
T3 sequence (Q6ZN18 whole entry partner): as the sequence (Q6ZN18 whole entry partner) above

Row | SMILES | IC50 (WSU-DLCL2 cells; [2]) [nM] | IC50 (Karpas 422 cells; [3]) [nM] | IC50 (Pfeiffer cells; [4]) [nM] | IC50 (wild-type EZH2) [nM] | further results
1 | CCN(c1cc(-c2ccc(C3(C#N)CCOCC3)cc2)cc(C(=O)NCc2c(C)cc(C)[nH]c2=O)c1C)C1CCOCC1 [Compound 1, 4′-(4-cyanotetrahydro-2H-pyran-4-yl)-N-((4,6-dimethyl-2-carbonyl-1,2-dihydropyridin-3-yl)methyl)-5-(ethyl(tetrahydro-2H-pyran-4-yl)amino)-4-methyl-[1,1′-biphenyl]-3-formamide] |  |  |  |  | IC50 (WSU-DLCL2 cells; WSUDLCL2, […]): 2.87 nM; IC50 (Pfeiffer cells; […]): 1.34 nM; IC50 (Karpas 422 cells; KARPAS-422, […]): 2.15 nM
2 | CCN(c1cc(-c2ccc(C3(C(=O)O)CCOCC3)cc2)cc(C(=O)NCc2c(C)cc(C)[nH]c2=O)c1C)C1CCOCC1 [Compound 2, 4-(3′-(((4,6-dimethyl-2-carbonyl-1,2-dihydropyridin-3-yl)methyl)carbamoyl)-5′-(ethyl(tetrahydro-2H-pyran-4-yl)amino)-4′-methyl-[1,1′-biphenyl]-4-yl)tetrahydro-2H-pyran-4-carboxylic Acid] | 1.58 | 1.08 |  |  | 
3 | CCN(c1cc(-c2ccc(C3(CO)CCOCC3)cc2)cc(C(=O)NCc2c(C)cc(C)[nH]c2=O)c1C)C1CCOCC1 [Compound 3, N-((4,6-dimethyl-2-carbonyl-1,2-dihydropyridin-3-yl)methyl)-5-(ethyl(tetrahydro-2H-pyran-4-yl)amino)-4′-(4-(hydroxymethyl)tetrahydro-2H-pyran-4-yl)-4-methyl-[1,1′-biphenyl]-3-carboxamide] | 2.68 | 2.5 | 1.67 |  | 
4 | CCN(c1cc(-c2ccc(C3(COC)CCOCC3)cc2)cc(C(=O)NCc2c(C)cc(C)[nH]c2=O)c1C)C1CCOCC1 [Compound 5, N-((4,6-dimethyl-2-carbonyl-1,2-dihydropyridin-3-yl)methyl)-5-(ethyl(tetrahydro-2H-pyran-4-yl)amino)-4′-(4-(methoxymethyl)tetrahydro-2H-pyran-4-yl)-4-methyl-[1,1′-biphenyl]-3-carboxamide] | 5.85 | 3.23 | 2.84 |  | 
5 | CCN(c1cc(-c2ccc3c(c2)CCC3N2CCOCC2)cc(C(=O)NCc2c(OC)cc(C)[nH]c2=O)c1C)C1CCOCC1 (centres unmarked) [Compound 6, 3-(ethyl(tetrahydro-2H-pyran-4-yl)amino)-N-((4-methoxy-6-methyl-2-oxo-1,2-dihydropyridin-3-yl)methyl)-2-methyl-5-(1-morpholino-2,3-dihydro-1H-inden-5-yl)benzamide] | 5.13 | 4.15 | 3.2 | 0.52 | bioavailability [1]: 33.3%; AUC ([1]; intravenous dosing 4 mg/kg): 966 ng·h/mL; half-life ([1]; intravenous dosing 4 mg/kg): 1.12 h; AUC ([1]; oral dosing 20 mg/kg): 1610 ng·h/mL; Cmax ([1]; oral dosing 20 mg/kg): 456 ng/mL
6 | CCN(c1cc(-c2ccc(C3(C#N)CCOCC3)cc2)c(Cl)c(C(=O)NCc2c(C)cc(C)[nH]c2=O)c1C)C1CCOCC1 [Compound 9, 2-chloro-4′-(4-cyanotetrahydro-2H-pyran-4-yl)-N-((4,6-dimethyl-2-oxo-1,2-dihydropyridin-3-yl)methyl)-5-(ethyl(tetrahydro-2H-pyran-4-yl)amino)-4-methyl-[1,1′-biphenyl]-3-formamide] | 4.68 | 4.15 | 3.47 | 0.9 | IC50 (Mutant EZH2 (Y641F)): 0.48 nM
7 | CCN(c1cc(-c2ccc3c(c2)CCC3N2CCOCC2)c(Cl)c(C(=O)NCc2c(C)cc(C)[nH]c2=O)c1C)C1CCOCC1 (centres unmarked) [Compound 10, 2-chloro-N-((4,6-dimethyl-2-oxo-1,2-dihydropyridin-3-yl)methyl)-5-(ethyl(tetrahydro-2H-pyran-4-yl)amino)-6-methyl-3-(1-morpholino-2,3-dihydro-1H-inden-5-yl)benzamide] | 1.17 | 0.58 | 0.38 | 0.63 | IC50 (Mutant EZH2 (Y641F)): 0.58 nM; IC50 (Mutant EZH2 (Y641N)): 0.3 nM; bioavailability [1]: 30.6%; AUC ([1]; intravenous dosing 4 mg/kg): 937 ng·h/mL; half-life ([1]; intravenous dosing 4 mg/kg): 1.64 h; AUC ([1]; oral dosing 20 mg/kg): 1440 ng·h/mL; Cmax ([1]; oral dosing 20 mg/kg): 405 ng/mL
8 | CCN(c1cc(-c2ccc3c(c2)CCC3N2CCOCC2)c(F)c(C(=O)NCc2c(C)cc(C)[nH]c2=O)c1C)C1CCOCC1 (centres unmarked) [Compound 11, N-((4,6-dimethyl-2-oxo-1,2-dihydropyridin-3-yl)methyl)-3-(ethyl (tetrahydro-2H-pyran-4-yl)amino)-6-fluoro-2-methyl-5-(1-morpholino-2,3-dihydro-1H-inden-5-yl)benzamide] | 2.92 | 1.87 | 1.08 | 0.6 | IC50 (Mutant EZH2 (Y641F)): 0.54 nM; bioavailability [1]: 26.6%; AUC ([1]; intravenous dosing 4 mg/kg): 954 ng·h/mL; half-life ([1]; intravenous dosing 4 mg/kg): 1.34 h; AUC ([1]; oral dosing 20 mg/kg): 1270 ng·h/mL; Cmax ([1]; oral dosing 20 mg/kg): 489 ng/mL
9 | CCN(c1cc(-c2ccc3c(c2)CCC3N2CCOCC2)cc(C(=O)NCc2c(C)cc(C)[nH]c2=O)c1C)C1CC(C)OC(C)C1 (centres unmarked) [Compound 13, N-((4,6-dimethyl-2-oxo-1,2-dihydropyridin-3-yl)methyl)-3-((2,6-dimethyltetrahydro-2H-pyran-4-yl)(ethyl)amino)-2-methyl-5-(1-morpholino-2,3-di hydro-1H-inden-5-yl)benzamide] |  |  |  | 0.95 | IC50 (Mutant EZH2 (Y641F)): 0.81 nM; IC50 (WSU-DLCL2 cells; WSUDLCL2, […]): 1.28 nM; IC50 (Pfeiffer cells; […]): 0.87 nM; IC50 (Karpas 422 cells; KARPAS-422, […]): 0.95 nM; bioavailability [1]: 34.5%; AUC ([1]; intravenous dosing 4 mg/kg): 977 ng·h/mL; half-life ([1]; intravenous dosing 4 mg/kg): 1.34 h; AUC ([1]; oral dosing 20 mg/kg): 1690 ng·h/mL; Cmax ([1]; oral dosing 20 mg/kg): 403 ng/mL
10 | CCN(c1cc(-c2ccc3c(c2)CCC3N2CCOCC2)cc(C(=O)NCc2c(C)cc(C)[nH]c2=O)c1C)C1CCOC(C)C1 (centres unmarked) [Compound 14, N-((4,6-dimethyl-2-oxo-1,2-dihydropyridin-3-yl)methyl)-3-((2-methyltetrahydro-2H-pyran-4-yl)(ethyl)amino)-2-methyl-5-(1-morpholino-2,3-dihydro-1H-inden-5-yl)benzamide] | 4.15 | 3.76 | 2.89 |  | 
11 | CCN(c1cc(N2Cc3ccc(N(C)C)cc3C2)cc(C(=O)NCc2c(C)cc(C)[nH]c2=O)c1C)C1CCOCC1 [Compound 17, N-((4,6-dimethyl-2-oxo-1,2-dihydropyridin-3-yl)methyl)-5-(5-(dimethylamino)isoindolin-2-yl)-3-(ethyl(tetrahydro-2H-pyran-4-yl)amino)-2-methylbenzamide] | 3.71 | 2.6 | 1.27 |  | 
12 | C=CC(=O)Nc1ccc2c(c1)CN(c1cc(C(=O)NCc3c(C)cc(C)[nH]c3=O)c(C)c(N(CC)C3CCOCC3)c1)C2 [Compound 19, 5-(5-acrylamidoisoindolin-2-yl)-N-((4,6-dimethyl-2-oxo-1,2-dihydropyridin-3-yl)methyl)-3-(ethyl(tetrahydro-2H-pyran-4-yl)amino)-2-methylbenzamide] | 7.75 | 3.21 | 2.34 | 0.61 | IC50 (Mutant EZH2 (Y641N)): 0.08 nM
13 | CCN(c1cc(N2Cc3ccc(CN4CCOCC4)cc3C2)cc(C(=O)NCc2c(C)cc(C)[nH]c2=O)c1C)C1CCOCC1 [Compound 20, N-((4,6-dimethyl-2-oxo-1,2-dihydropyridin-3-yl)methyl)-3-(ethyl (tetrahydro-2H-pyran-4-yl)amino)-2-methyl-5-((5-morpholinomethyl)isoindolin-2-yl)benzamide] | 7.84 | 3.62 | 2.85 |  | 
14 | CCN(c1ccc2c(c1)CN(c1cc(C(=O)NCc3c(C)cc(C)[nH]c3=O)c(C)c(N(CC)C3CCOCC3)c1)C2)C1CCOCC1 [Compound 22, N-((4,6-dimethyl-2-oxo-1,2-dihydropyridin-3-yl)methyl)-3-(ethyl (tetrahydro-2H-pyran-4-yl)amino)-5-(5-(ethyl(tetrahydro-2H-pyran-4-yl)amino)isoindolin-2-yl)-2-methylbenzamide] | 6.38 | 3.67 | 1.87 | 0.71 | 
15 | CCN(c1cc(N2Cc3ccc(NC4CCOCC4)cc3C2)cc(C(=O)NCc2c(C)cc(C)[nH]c2=O)c1C)C1CCOCC1 [Compound 23] | 6.48 | 4.09 | 4.36 | 0.89 | IC50 (Mutant EZH2 (A677G)): 0.66 nM; IC50 (Mutant EZH2 (Y641N)): 0.5 nM
16 | CCN(c1cc(-c2cc3c(cc2F)C(N2CCOCC2)CC3)cc(C(=O)NCc2c(C)cc(C)[nH]c2=O)c1C)C1CCOCC1 (centres unmarked) [Compound 24] | 5.28 | 4.47 | 2.96 | 0.87 | IC50 (Mutant EZH2 (A677G)): 0.61 nM
17 | CCN(c1cc(-c2cc(F)c3c(c2)CCC3N2CCOCC2)cc(C(=O)NCc2c(C)cc(C)[nH]c2=O)c1C)C1CCOCC1 (centres unmarked) [Compound 26] | 9.42 | 6.47 | 5.86 |  | 
18 | CCN(c1cc(-c2ccc3c(c2)C(C)(C)CC3N2CCOCC2)cc(C(=O)NCc2c(C)cc(C)[nH]c2=O)c1C)C1CCOCC1 (centres unmarked) [Compound 27] | 1.71 |  |  |  | 
